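Grown in 96-well plates, cells were treated for 48 hours with each compound at five concentrations. Insufficient inhibition: endpoint recorded as highest concentration tested. At the GI50, growth is halved.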 The source made the active and inactive calls. No stated cut-off is given here; in the data, active = GI50 up to about 1.1 µM and inactive = higher.
Experiments:
Experiment in all cases: DTP human tumour cell line panel, 48 h
M14 = test system: M14
OVCAR-5 = test system: OVCAR-5
TK-10 = test system: TK-10
SK-OV-3 = test system: SK-OV-3
COLO 205 = test system: COLO 205
SF-539 = test system: SF-539
CAKI-1 = test system: CAKI-1
SNB-19 = test system: SNB-19
SNB-75 = test system: SNB-75
SF-295 = test system: SF-295
MDA-N = test system: MDA-N
IGROV-1 = test system: IGROV-1
A549 = test system: A549
NCI-H522 = test system: NCI-H522
SK-MEL-5 = test system: SK-MEL-5
Hs-578T = test system: Hs-578T
KM12 = test system: KM12
Malme-3M = test system: Malme-3M
ACHN = test system: ACHN
A498 = test system: A498
MCF7 = test system: MCF7
DU-145 = test system: DU-145
UACC-257 = test system: UACC-257
NCI-H226 = test system: NCI-H226
MDA-MB-435 = test system: MDA-MB-435
HOP-62 = test system: HOP-62
SR = test system: SR
HOP-92 = test system: HOP-92
MDA-MB-231 = test system: MDA-MB-231
RXF 393 = test system: RXF 393
LOX IMVI = test system: LOX IMVI
SK-MEL-2 = test system: SK-MEL-2
UACC-62 = test system: UACC-62
NCI-H23 = test system: NCI-H23
NCI-H460 = test system: NCI-H460
UO-31 = test system: UO-31
T47D = test system: T47D
OVCAR-3 = test system: OVCAR-3
K562 = test system: K562
SK-MEL-28 = test system: SK-MEL-28
HCT-15 = test system: HCT-15
HCC 2998 = test system: HCC 2998
CCRF-CEM = test system: CCRF-CEM
SF-268 = test system: SF-268
MOLT-4 = test system: MOLT-4
EKVX = test system: EKVX
SW-620 = test system: SW-620
OVCAR-4 = test system: OVCAR-4
PC-3 = test system: PC-3
RPMI-8226 = test system: RPMI-8226
OVCAR-8 = test system: OVCAR-8
HT-29 = test system: HT-29
U-251 = test system: U-251
NCI/ADR-RES = test system: NCI/ADR-RES
786-0 = test system: 786-0
SN12C = test system: SN12C
HCT-116 = test system: HCT-116

For `CC(C)OP(=O)(OC(C)C)c1c(N)n[nH]c1Nc1ccccc1`, the GI50 (M14) was > 100 µM (inactive), the GI50 (OVCAR-5) was > 100 µM (inactive) and the GI50 (TK-10) was > 100 µM (inactive). For the same molecule, the GI50 (SK-OV-3) was > 100 µM (inactive), the GI50 (COLO 205) was > 100 µM (inactive) and the GI50 (SF-539) was > 100 µM (inactive). The GI50 (CAKI-1) was > 100 µM (inactive), the GI50 (SNB-19) was > 100 µM (inactive) and the GI50 (SNB-75) was > 100 µM (inactive). The GI50 (SF-295) was > 100 µM (inactive), the GI50 (MDA-N) was > 100 µM (inactive) and the GI50 (IGROV-1) was > 100 µM (inactive). The GI50 (A549) was > 100 µM (inactive), the GI50 (NCI-H522) was > 100 µM (inactive) and the GI50 (SK-MEL-5) was > 100 µM (inactive). For the same molecule, the GI50 (Hs-578T) was 33 µM (inactive), the GI50 (KM12) was > 100 µM (inactive) and the GI50 (Malme-3M) was > 100 µM (inactive). The GI50 (ACHN) was > 100 µM (inactive), the GI50 (A498) was > 100 µM (inactive) and the GI50 (MCF7) was > 100 µM (inactive). The GI50 (DU-145) was > 100 µM (inactive), the GI50 (UACC-257) was > 100 µM (inactive) and the GI50 (NCI-H226) was > 100 µM (inactive). The GI50 (MDA-MB-435) was > 100 µM (inactive), the GI50 (HOP-62) was > 100 µM (inactive) and the GI50 (SR) was > 100 µM (inactive). The GI50 (HOP-92) was > 100 µM (inactive), the GI50 (MDA-MB-231) was > 100 µM (inactive) and the GI50 (RXF 393) was > 100 µM (inactive). The GI50 (LOX IMVI) was > 100 µM (inactive), the GI50 (SK-MEL-2) was > 100 µM (inactive) and the GI50 (UACC-62) was > 100 µM (inactive). The GI50 (NCI-H23) was > 100 µM (inactive), the GI50 (NCI-H460) was > 100 µM (inactive) and the GI50 (UO-31) was > 100 µM (inactive). The GI50 (T47D) was > 100 µM (inactive), the GI50 (OVCAR-3) was > 100 µM (inactive) and the GI50 (K562) was > 100 µM (inactive). For the same molecule, the GI50 (SK-MEL-28) was > 100 µM (inactive), the GI50 (HCT-15) was > 100 µM and the GI50 (HCC 2998) was > 100 µM (inactive). For the same molecule, the GI50 (CCRF-CEM) was > 100 µM (inactive), the GI50 (SF-268) was > 100 µM (inactive) and the GI50 (MOLT-4) was > 100 µM (inactive). The GI50 (EKVX) was > 100 µM (inactive), the GI50 (SW-620) was > 100 µM (inactive) and the GI50 (OVCAR-4) was > 100 µM (inactive). For the same molecule, the GI50 (PC-3) was > 100 µM (inactive), the GI50 (RPMI-8226) was > 100 µM (inactive) and the GI50 (OVCAR-8) was > 100 µM (inactive). The GI50 (HT-29) was > 100 µM (inactive), the GI50 (U-251) was > 100 µM (inactive) and the GI50 (NCI/ADR-RES) was > 100 µM (inactive).
`C=[N+](CNC(=O)CNC(=O)C(Cc1ccccc1)NC(=O)OC(C)(C)C)C(=O)CNC(=O)C(Cc1ccccc1)NC(=O)OC(C)(C)C` (stereo unspecified) was tested, and the GI50 (M14) was > 100 µM (inactive), the GI50 (OVCAR-5) was > 100 µM (inactive) and the GI50 (SK-OV-3) was > 100 µM (inactive). For the same molecule, the GI50 (COLO 205) was > 100 µM (inactive), the GI50 (SF-539) was > 100 µM (inactive) and the GI50 (CAKI-1) was > 100 µM (inactive). For the same molecule, the GI50 (SNB-19) was > 100 µM (inactive), the GI50 (SNB-75) was > 100 µM (inactive) and the GI50 (SF-295) was > 100 µM (inactive). For the same molecule, the GI50 (MDA-N) was > 100 µM (inactive), the GI50 (IGROV-1) was > 100 µM (inactive) and the GI50 (A549) was > 100 µM (inactive). The GI50 (NCI-H522) was > 100 µM (inactive), the GI50 (SK-MEL-5) was > 100 µM (inactive) and the GI50 (Hs-578T) was > 100 µM (inactive). For the same molecule, the GI50 (KM12) was > 100 µM (inactive), the GI50 (Malme-3M) was > 100 µM (inactive) and the GI50 (ACHN) was > 100 µM (inactive). For the same molecule, the GI50 (A498) was > 100 µM (inactive), the GI50 (MCF7) was > 100 µM (inactive) and the GI50 (DU-145) was > 100 µM (inactive). The GI50 (UACC-257) was > 100 µM (inactive), the GI50 (NCI-H226) was > 100 µM (inactive) and the GI50 (MDA-MB-435) was > 100 µM (inactive). For the same molecule, the GI50 (786-0) was > 100 µM (inactive), the GI50 (HOP-62) was > 100 µM (inactive) and the GI50 (SR) was > 100 µM (inactive). For the same molecule, the GI50 (HOP-92) was > 100 µM (inactive), the GI50 (MDA-MB-231) was > 100 µM (inactive) and the GI50 (RXF 393) was > 100 µM (inactive). The GI50 (LOX IMVI) was > 100 µM (inactive), the GI50 (SN12C) was > 100 µM (inactive) and the GI50 (SK-MEL-2) was > 100 µM (inactive). For the same molecule, the GI50 (UACC-62) was > 100 µM (inactive), the GI50 (NCI-H23) was > 100 µM (inactive) and the GI50 (NCI-H460) was > 100 µM (inactive). The GI50 (UO-31) was > 100 µM (inactive), the GI50 (T47D) was > 100 µM (inactive) and the GI50 (OVCAR-3) was > 100 µM (inactive). For the same molecule, the GI50 (K562) was > 100 µM (inactive), the GI50 (SK-MEL-28) was > 100 µM (inactive) and the GI50 (HCT-15) was > 100 µM. For the same molecule, the GI50 (HCC 2998) was > 100 µM (inactive), the GI50 (CCRF-CEM) was > 100 µM (inactive) and the GI50 (SF-268) was > 100 µM (inactive). For the same molecule, the GI50 (MOLT-4) was > 100 µM (inactive), the GI50 (EKVX) was > 100 µM (inactive) and the GI50 (SW-620) was > 100 µM (inactive). The GI50 (OVCAR-4) was > 100 µM (inactive), the GI50 (PC-3) was > 100 µM (inactive) and the GI50 (HCT-116) was > 100 µM (inactive). For the same molecule, the GI50 (RPMI-8226) was > 100 µM (inactive), the GI50 (OVCAR-8) was > 100 µM (inactive) and the GI50 (HT-29) was > 100 µM (inactive). The GI50 (NCI/ADR-RES) was > 100 µM (inactive).
In the case of `CC(C)NCC(O)c1ccc(OCc2ccccc2)c(OCc2ccccc2)c1-c1ccccc1` (stereo unspecified), the GI50 (M14) was 1.93 µM (inactive), the GI50 (OVCAR-5) was 1.77 µM (inactive) and the GI50 (TK-10) was 2.35 µM (inactive). For the same molecule, the GI50 (SK-OV-3) was 1.67 µM (inactive), the GI50 (COLO 205) was 1.7 µM (inactive) and the GI50 (SF-539) was 1.58 µM (inactive). For the same molecule, the GI50 (CAKI-1) was 1.76 µM (inactive), the GI50 (SNB-19) was 2.6 µM (inactive) and the GI50 (SNB-75) was 1.28 µM (inactive). For the same molecule, the GI50 (SF-295) was 2.05 µM (inactive), the GI50 (MDA-N) was 1.69 µM (inactive) and the GI50 (IGROV-1) was 1.41 µM (inactive). The GI50 (A549) was 1.72 µM (inactive), the GI50 (NCI-H522) was 1.65 µM (inactive) and the GI50 (SK-MEL-5) was 1.25 µM (inactive). The GI50 (Hs-578T) was 1.34 µM (inactive), the GI50 (KM12) was 2.16 µM (inactive) and the GI50 (Malme-3M) was 1.77 µM (inactive). For the same molecule, the GI50 (ACHN) was 1.68 µM (inactive), the GI50 (A498) was 2.49 µM (inactive) and the GI50 (MCF7) was 1.79 µM (inactive). The GI50 (DU-145) was 1.75 µM (inactive), the GI50 (UACC-257) was 1.88 µM (inactive) and the GI50 (NCI-H226) was 2.33 µM (inactive). The GI50 (MDA-MB-435) was 1.79 µM (inactive), the GI50 (786-0) was 1.71 µM (inactive) and the GI50 (HOP-62) was 1.79 µM (inactive). For the same molecule, the GI50 (SR) was 2.68 µM (inactive), the GI50 (HOP-92) was 2.62 µM (inactive) and the GI50 (MDA-MB-231) was 1.69 µM (inactive). The GI50 (RXF 393) was 3 µM (inactive), the GI50 (LOX IMVI) was 3.07 µM (inactive) and the GI50 (SN12C) was 1.75 µM (inactive). For the same molecule, the GI50 (SK-MEL-2) was 2.7 µM (inactive), the GI50 (UACC-62) was 1.41 µM (inactive) and the GI50 (NCI-H23) was 1.97 µM (inactive). For the same molecule, the GI50 (NCI-H460) was 1.79 µM (inactive), the GI50 (UO-31) was 2.52 µM (inactive) and the GI50 (T47D) was 2.74 µM (inactive). For the same molecule, the GI50 (OVCAR-3) was 1.8 µM (inactive), the GI50 (K562) was 1.63 µM (inactive) and the GI50 (SK-MEL-28) was 1.76 µM (inactive). The GI50 (HCT-15) was 1.82 µM, the GI50 (HCC 2998) was 1.69 µM (inactive) and the GI50 (CCRF-CEM) was 1.95 µM (inactive). For the same molecule, the GI50 (SF-268) was 2.93 µM (inactive), the GI50 (MOLT-4) was 2.05 µM (inactive) and the GI50 (EKVX) was 14.3 µM (inactive). For the same molecule, the GI50 (SW-620) was 1.63 µM (inactive), the GI50 (OVCAR-4) was 1.89 µM (inactive) and the GI50 (PC-3) was 1.53 µM (inactive). For the same molecule, the GI50 (HCT-116) was 1.79 µM (inactive), the GI50 (RPMI-8226) was 2.51 µM (inactive) and the GI50 (OVCAR-8) was 1.73 µM (inactive). For the same molecule, the GI50 (HT-29) was 1.66 µM (inactive), the GI50 (U-251) was 1.67 µM (inactive) and the GI50 (NCI/ADR-RES) was 2 µM (inactive).

Reference: ChEMBL document CHEMBL1201862, “PubChem BioAssay data set” (2004)
